According to ChEMBL document CHEMBL1201862, “PubChem BioAssay data set” (2004):
“And” between values parts separate entries of the source, which are not always exact repeats. Equal entries are not always repeated. The source made the active and inactive calls.

Tests used:
[1] = inhibitors of SNCA 5'UTR-driven reporter translation, confirmation, H4 neuroglioma cells, luminescence (AID 1988); assay type: functional, cell-based
[2] = target: T1, DNA repair protein RAD52 homolog (Homo sapiens, UniProt P43351); assay type: functional, biochemical
T1 sequence (P43351 whole entry): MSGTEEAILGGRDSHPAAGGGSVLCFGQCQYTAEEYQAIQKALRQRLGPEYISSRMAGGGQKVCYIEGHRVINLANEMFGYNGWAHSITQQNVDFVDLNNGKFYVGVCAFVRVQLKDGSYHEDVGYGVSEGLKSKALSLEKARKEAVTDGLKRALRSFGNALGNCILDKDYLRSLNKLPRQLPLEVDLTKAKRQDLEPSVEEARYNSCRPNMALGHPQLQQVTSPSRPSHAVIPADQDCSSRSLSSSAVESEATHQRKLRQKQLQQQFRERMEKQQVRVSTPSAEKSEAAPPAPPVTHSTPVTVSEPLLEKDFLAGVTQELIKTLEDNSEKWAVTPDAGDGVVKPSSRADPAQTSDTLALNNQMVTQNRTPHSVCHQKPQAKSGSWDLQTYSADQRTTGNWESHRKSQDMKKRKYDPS

[3] = Luminescence Cell-Based Dose Response HTS to Identify Inhibitors of 5'UTR Stem-Loop Driven Prion Protein mRNA Translation in H4 Neuroglioblastoma Cells. [Related pubchem assays: 1827 (Project Summary), 1813 (Primary HTS)]; assay type: functional
[4] = target: DNA (cytosine-5)-methyltransferase 1 (Homo sapiens, UniProt P26358); experiment: DNMT1 methyltransferase inhibitors, confirmation, biochemical, fluorescent molecular beacon (AID 602386); assay type: functional
Chain of DNA (cytosine-5)-methyltransferase 1 (P26358 whole entry): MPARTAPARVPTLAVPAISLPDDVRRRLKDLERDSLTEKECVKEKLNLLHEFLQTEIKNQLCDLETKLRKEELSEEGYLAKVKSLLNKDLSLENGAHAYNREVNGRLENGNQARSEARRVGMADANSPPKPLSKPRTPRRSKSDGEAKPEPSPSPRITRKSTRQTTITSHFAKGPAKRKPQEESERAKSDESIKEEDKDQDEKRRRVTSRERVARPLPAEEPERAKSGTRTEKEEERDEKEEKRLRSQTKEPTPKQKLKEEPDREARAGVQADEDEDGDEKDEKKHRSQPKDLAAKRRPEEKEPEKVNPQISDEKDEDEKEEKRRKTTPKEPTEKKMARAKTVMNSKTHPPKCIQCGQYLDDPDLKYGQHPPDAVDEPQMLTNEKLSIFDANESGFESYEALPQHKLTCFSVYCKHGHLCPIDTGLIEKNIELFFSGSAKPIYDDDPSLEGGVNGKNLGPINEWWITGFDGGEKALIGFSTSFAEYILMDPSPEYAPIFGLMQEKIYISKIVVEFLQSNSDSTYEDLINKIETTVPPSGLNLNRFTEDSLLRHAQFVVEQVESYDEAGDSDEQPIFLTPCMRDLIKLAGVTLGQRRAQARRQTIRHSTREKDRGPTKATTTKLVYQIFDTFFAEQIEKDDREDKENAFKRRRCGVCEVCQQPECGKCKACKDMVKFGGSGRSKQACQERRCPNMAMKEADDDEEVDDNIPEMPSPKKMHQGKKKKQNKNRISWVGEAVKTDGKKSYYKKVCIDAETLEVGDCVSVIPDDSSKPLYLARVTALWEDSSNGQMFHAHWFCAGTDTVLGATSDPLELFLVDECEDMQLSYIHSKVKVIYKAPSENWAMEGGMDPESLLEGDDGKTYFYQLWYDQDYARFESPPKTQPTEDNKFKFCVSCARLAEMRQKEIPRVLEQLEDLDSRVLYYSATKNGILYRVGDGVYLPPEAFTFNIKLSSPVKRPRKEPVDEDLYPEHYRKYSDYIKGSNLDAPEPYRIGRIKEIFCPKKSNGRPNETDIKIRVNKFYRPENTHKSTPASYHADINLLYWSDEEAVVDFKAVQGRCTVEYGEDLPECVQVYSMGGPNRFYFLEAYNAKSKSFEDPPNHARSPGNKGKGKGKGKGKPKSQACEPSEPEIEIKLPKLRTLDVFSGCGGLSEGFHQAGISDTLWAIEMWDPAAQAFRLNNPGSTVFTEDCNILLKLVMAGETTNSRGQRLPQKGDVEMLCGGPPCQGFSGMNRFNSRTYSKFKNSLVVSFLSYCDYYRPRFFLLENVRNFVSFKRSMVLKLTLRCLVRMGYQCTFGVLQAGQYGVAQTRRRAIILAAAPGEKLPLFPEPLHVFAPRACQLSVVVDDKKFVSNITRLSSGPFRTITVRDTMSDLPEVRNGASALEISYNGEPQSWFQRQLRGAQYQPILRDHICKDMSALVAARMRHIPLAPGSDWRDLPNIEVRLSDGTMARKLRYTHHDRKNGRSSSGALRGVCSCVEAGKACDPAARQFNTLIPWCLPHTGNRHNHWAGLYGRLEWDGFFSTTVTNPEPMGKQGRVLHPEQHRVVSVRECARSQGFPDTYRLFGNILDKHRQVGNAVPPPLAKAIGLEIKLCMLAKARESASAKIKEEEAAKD

[5] = target: T2, Sentrin-specific protease 8 (Homo sapiens, UniProt Q96LD8); assay type: functional
T2 sequence (Q96LD8 whole entry): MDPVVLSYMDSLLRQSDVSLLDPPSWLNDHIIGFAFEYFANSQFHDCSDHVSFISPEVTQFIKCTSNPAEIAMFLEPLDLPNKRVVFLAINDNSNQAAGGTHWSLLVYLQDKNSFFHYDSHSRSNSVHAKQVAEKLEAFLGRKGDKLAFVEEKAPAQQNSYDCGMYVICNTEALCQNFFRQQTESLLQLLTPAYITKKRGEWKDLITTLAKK

[6] = target: T2, Sentrin-specific protease 8; assay type: functional; remark: listed apart in the source
[7] = ARNT/TACC3 interaction disruptors, potency, confirmation, biochemical, AlphaScreen, cherry-picked samples (AID 651703); assay type: functional, Homo sapiens;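 also: His-tagged ARNT PAS-B domain paired with GST-TACC3 E629A dimer coactivator fragment; potency of inhibitors that break up the complex and lower AlphaScreen signal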
[8] = target: T3, Rac GTPase-activating protein 1 (Homo sapiens, UniProt Q9H0H5); experiment: MgcRacGAP GTPase-activating activity inhibitors, confirmation, biochemical, ADP Hunter fluorescence, primary and confirmatory (AID 624330); assay type: functional
T3 sequence (Q9H0H5 whole entry): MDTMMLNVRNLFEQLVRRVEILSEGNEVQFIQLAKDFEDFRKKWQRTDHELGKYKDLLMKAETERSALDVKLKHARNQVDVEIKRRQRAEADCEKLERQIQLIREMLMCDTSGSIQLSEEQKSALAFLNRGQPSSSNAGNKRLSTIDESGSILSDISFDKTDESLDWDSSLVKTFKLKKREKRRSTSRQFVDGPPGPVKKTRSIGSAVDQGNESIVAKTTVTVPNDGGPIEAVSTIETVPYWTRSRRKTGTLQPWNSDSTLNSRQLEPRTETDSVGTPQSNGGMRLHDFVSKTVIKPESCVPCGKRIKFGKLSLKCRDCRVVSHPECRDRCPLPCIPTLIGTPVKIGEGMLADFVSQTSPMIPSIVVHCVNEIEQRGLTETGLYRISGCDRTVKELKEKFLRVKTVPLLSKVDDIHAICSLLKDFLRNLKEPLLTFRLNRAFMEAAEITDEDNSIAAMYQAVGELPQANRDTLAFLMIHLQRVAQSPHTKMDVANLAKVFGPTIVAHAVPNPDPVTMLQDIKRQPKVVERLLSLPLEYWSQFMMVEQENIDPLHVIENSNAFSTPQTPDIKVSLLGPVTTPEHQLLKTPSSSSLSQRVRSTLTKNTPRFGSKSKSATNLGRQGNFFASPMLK

[9] = target: T4, CAAX prenyl protease 2 (Saccharomyces cerevisiae S288c, UniProt Q03530); assay type: biochemical
T4 sequence (Q03530 whole entry): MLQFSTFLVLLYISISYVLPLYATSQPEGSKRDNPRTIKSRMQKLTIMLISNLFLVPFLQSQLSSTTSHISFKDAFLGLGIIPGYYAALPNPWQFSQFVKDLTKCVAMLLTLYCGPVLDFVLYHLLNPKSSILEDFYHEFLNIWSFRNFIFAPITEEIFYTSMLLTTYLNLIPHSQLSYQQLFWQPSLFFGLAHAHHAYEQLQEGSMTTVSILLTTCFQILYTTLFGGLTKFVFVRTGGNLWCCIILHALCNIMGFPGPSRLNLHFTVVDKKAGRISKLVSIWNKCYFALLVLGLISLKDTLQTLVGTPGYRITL

[10] = target: CAAX prenyl protease 2 (Homo sapiens, UniProt Q9Y256); experiment: human Rce1 protease inhibitors, dose response, biochemical, yeast membranes, quenched-peptide fluorescence, cherry-pick (AID 588849)
Chain of CAAX prenyl protease 2 (Homo sapiens, UniProt Q9Y256) (Q9Y256 whole entry): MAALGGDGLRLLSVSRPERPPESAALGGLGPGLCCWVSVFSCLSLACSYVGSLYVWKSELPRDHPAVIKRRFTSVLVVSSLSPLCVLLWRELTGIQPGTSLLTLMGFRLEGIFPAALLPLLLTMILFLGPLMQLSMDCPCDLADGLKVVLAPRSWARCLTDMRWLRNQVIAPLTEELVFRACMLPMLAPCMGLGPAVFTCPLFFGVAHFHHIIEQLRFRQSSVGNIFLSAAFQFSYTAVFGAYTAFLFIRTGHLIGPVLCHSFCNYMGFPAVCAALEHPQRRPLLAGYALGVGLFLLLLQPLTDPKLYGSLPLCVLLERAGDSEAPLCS

[11] = target: Melanocortin receptor 4 (Homo sapiens, UniProt P32245); experiment: MC4R antagonist potency on cAMP, dose response, cell-based, TR-FRET, biased antagonists (AID 602298); assay type: functional;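 also: antagonist potency against agonist-stimulated cAMP production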
Chain of Melanocortin receptor 4 (P32245 whole entry): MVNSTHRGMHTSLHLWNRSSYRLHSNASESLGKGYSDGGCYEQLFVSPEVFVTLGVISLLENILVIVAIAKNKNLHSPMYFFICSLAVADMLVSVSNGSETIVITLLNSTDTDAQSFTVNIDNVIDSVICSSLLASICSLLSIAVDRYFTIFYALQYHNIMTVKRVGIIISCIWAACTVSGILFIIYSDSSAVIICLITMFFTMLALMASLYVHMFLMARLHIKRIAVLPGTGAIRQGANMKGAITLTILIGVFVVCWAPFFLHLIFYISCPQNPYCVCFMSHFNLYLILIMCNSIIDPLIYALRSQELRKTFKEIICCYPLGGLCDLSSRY

[12] = target: ATP-dependent molecular chaperone HSP82 (Candida albicans (strain WO-1) (Yeast), UniProt C4YTQ8); experiment: loss of DOC-induced GRE-beta-galactosidase reporter signal, dose response, Hsp90 inhibitor project, S. cerevisiae, luminescence (AID 2400); assay type: functional, cell-based;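 also: beta-galactosidase luminescence from glucocorticoid response element reporter as proxy for Hsp90 function; inhibitor potency where signal loss means Hsp90 inhibition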
Chain of ATP-dependent molecular chaperone HSP82 (C4YTQ8 whole entry, the tested form may be a part): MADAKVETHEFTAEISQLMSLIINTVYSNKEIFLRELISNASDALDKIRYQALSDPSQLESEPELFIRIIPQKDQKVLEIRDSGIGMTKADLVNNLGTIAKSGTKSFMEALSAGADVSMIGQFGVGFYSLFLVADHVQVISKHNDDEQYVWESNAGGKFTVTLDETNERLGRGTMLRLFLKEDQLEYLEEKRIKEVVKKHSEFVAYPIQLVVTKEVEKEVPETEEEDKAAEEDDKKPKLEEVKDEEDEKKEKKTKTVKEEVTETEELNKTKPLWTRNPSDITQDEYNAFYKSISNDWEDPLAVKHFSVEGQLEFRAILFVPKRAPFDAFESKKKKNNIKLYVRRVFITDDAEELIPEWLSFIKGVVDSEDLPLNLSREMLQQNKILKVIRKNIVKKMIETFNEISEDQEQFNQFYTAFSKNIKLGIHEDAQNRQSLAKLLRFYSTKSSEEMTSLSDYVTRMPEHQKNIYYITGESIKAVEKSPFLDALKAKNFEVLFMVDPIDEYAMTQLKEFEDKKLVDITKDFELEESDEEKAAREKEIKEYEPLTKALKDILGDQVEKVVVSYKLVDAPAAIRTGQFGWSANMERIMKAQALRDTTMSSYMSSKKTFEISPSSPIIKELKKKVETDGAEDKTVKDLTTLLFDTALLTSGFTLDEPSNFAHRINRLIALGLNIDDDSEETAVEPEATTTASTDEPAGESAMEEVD

[13] = target: Hepatocyte nuclear factor 4-alpha (Homo sapiens, UniProt P41235); assay type: functional, cell-based;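 also: biochemical luminescence-based dose-response counterscreen measuring inhibition of HNF4 dimerization, run alongside a screen for blockers of ABHD5–perilipin-5 interaction; split luciferase complementation of HNF4 fusion proteins in cell lysate measuring dimerization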
Chain of Hepatocyte nuclear factor 4-alpha (P41235 whole entry, the tested form may be a part): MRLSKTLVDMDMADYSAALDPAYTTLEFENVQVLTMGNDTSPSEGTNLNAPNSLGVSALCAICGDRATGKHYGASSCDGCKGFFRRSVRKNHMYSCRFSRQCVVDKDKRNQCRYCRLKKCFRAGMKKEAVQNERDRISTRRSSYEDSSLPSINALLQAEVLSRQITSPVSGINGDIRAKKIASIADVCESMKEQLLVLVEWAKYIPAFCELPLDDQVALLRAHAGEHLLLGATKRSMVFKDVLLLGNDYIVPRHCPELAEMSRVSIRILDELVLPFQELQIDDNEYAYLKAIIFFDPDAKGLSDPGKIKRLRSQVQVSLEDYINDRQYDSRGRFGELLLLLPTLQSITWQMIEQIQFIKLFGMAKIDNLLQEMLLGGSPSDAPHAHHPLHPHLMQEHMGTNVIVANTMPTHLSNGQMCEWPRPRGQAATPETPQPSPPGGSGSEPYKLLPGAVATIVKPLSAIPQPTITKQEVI

[14] = target: T5, Neuropeptides B/W receptor type 1 (Homo sapiens, UniProt P48145); experiment: GPR7 antagonist potency, late-stage follow-up, cell-based, fluorescence, dose response, set 5 (AID 588566); assay type: functional
T5 sequence (P48145 whole entry): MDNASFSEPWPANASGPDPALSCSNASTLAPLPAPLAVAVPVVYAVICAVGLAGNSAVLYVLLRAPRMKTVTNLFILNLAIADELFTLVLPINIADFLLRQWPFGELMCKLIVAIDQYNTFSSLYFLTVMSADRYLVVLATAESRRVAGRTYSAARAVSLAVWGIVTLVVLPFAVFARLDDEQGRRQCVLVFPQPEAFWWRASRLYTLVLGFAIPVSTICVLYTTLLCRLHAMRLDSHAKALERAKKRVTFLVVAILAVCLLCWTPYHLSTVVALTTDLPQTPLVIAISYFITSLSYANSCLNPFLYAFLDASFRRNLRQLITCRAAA

[15] = target: Melanin-concentrating hormone receptor 1 (Homo sapiens, UniProt Q99705); experiment: Late-stage fluorescence-based counterscreen for antagonists of the G-protein coupled receptor 7 (GPR7): cell-based dose response assay to identify antagonists of the melanin-concentrating hormone receptor 1 (MCHR1) Set 5.; assay type: functional
Chain of Melanin-concentrating hormone receptor 1 (Q99705 whole entry): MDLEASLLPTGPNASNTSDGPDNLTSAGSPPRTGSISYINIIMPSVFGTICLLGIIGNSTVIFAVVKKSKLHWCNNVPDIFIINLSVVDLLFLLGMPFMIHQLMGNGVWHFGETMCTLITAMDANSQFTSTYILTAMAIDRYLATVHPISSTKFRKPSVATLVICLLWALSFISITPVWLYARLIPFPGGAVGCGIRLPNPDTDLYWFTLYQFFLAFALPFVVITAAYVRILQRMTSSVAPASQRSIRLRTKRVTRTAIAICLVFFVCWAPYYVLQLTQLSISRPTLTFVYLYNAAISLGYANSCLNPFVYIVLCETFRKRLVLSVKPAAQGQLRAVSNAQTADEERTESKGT

[16] = AlphaScreen signal interference compounds, dose response, artefact control for ARNT-TACC3 interaction inhibitor project, biochemical, luminescence, cherry-pick (AID 651705); assay type: functional;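 also: AlphaScreen bead proximity signal that flags compounds interfering with the detection technology; potency reflects signal decrease which marks the compound as an assay artifact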
[17] = target: Nonstructural protein 1 (Influenza A virus, UniProt Q194T2); assay type: functional, Influenza A virus (A/California/07/2009(H1N1))
Chain of Nonstructural protein 1 (Q194T2 whole entry): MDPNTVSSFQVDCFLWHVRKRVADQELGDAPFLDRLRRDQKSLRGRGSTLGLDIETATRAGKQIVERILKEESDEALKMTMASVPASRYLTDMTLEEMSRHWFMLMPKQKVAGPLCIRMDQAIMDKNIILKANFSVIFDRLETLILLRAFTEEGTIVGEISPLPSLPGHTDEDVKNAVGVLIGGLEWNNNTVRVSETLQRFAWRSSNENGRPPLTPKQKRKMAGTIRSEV

CC1(C)CC(N=c2cc(-c3ccccc3)oc3ccc(Cl)cc23)CC(C)(C)N1
EC50 [1]: > 60 µM (not active)
AC50 [2]: 0.689 µM (active)
EC50 [3]: > 120 µM (not active)
IC50 [4]: > 99 µM (inactive)

Cc1ccoc1C(=O)NCCCNC(=O)c1occc1C
IC50 [5]: 8.27 µM (active)
IC50 [6]: 12.7 µM (active)
AC50 [7]: 84.7 µM (active)

[H]/N=C(\N/C(=N/[H])NCCCCCCNC(=N)NC(=N)Nc1ccc(Cl)cc1)Nc1ccc(Cl)cc1
IC50 [8]: 42.3 µM (active)
AC50 [2]: 17.4 µM (active)
AC50 [9]: 23.1 µM (active)
AC50 [10]: 12.9 µM (active)
IC50 [11]: 1.55 µM (active)
EC50 [12]: 19.8 µM (active) and > 160 µM (inactive)
IC50 [13]: 21.4 µM (inactive)

CSc1ccc(Oc2cnn(Cc3cccc4ccccc34)c(=O)c2Cl)cc1
IC50 [14]: 4.59 µM (active)
IC50 [15]: 9.04 µM (active)

O=C(C1CCCCN1Cc1cccc2ccccc12)N1CCN(c2ccc([N+](=O)[O-])cc2)CC1 (stereo not given)
IC50 [14]: > 20 µM (inactive)
IC50 [15]: > 20 µM (inactive)

COc1cc([N+](=O)[O-])cc(/C=N/NC(=O)Cn2cncn2)c1O
AC50 [16]: 85 µM (active)
IC50 [17]: 10.1 µM (active)
